Results: publication PMC6894747 (PLoS Pathogens, 2019)
pIC50, pKd: −log10 of the molar value. Positions of bridges follow the written chain, without caps; N, C: chain ends. Residues, ends and D or L forms follow the SMILES beside them. No end group written: not given here.

Assays:
[1] = test system: HIV-1 IIIB (subtype B, X4); format: cell-based; settings: for pIC50: IIIB (subtype B, X4)
Method: Briefly, 1×10^5/mL MT-2 or M7 cells were infected with different HIV-1 viruses at 100 TCID50 (50% tissue culture infective dose) in the presence or absence of peptides at graded concentrations overnight. Then the culture supernatants were replaced with equal volume of fresh medium. On the fourth day post-infection, supernatants were collected and mixed with equal volume of 5% Triton X-100. […] The IC50 values were calculated with CalcuSyn software [35–36], and inhibition curves of best fit were generated with GraphPad Prism.

gp41 NHR peptide N36 = target: T1, gp41 NHR peptide N36 (Human immunodeficiency virus type 1 group M subtype B, UniProt P04578); test: Thermostability of 6-HB formed with N36, by CD; format: binding, HIV-1; settings: CD at 222 nm, 20 to 98 °C at 1.2 °C/min, 10 μM peptide in PBS
T1 construct: purchased KareBay Biochem, Inc; host or cells: solid-phase chemical synthesis
Method: CD spectroscopy was conducted as previously described. Briefly, a CHR peptide was incubated with NHR peptide N36 at concentration of 10 μM at 37 °C for 30 min. The separated C-peptides were also measured. The CD spectra were measured on a Jasco spectropolarimeter (model J-815; Jasco, Inc., Easton, MD, USA), using a 1-nm bandwidth with a 1-nm step resolution from 195 to 260 nm at room temperature. The spectra were corrected by subtraction of PBS. The α-helical content was calculated from the CD signal by dividing the mean residue ellipticity [θ] at 222 nm by the value expected for 100% helix formation (-33,000 deg·cm^2·dmol^-1). The thermal denaturation experiment was performed by monitoring the changes in ellipticity [θ] at 222 nm at increasing temperature from 20 to 98 °C at a rate of 1.2 °C/min; data were acquired at a 1-nm bandwidth at 222 nm at a frequency of 0.25 Hz. The melting curve was smoothed, and the midpoint of the thermal unfolding transition (Tm) value was taken as the maximum of the derivative d[θ] 222/dt. Tm value was detected at a peptide concentration of 10 μM in PBS buffer.

[2] = target: T2, 6-HB formation between N36 and C34 (Human immunodeficiency virus type 1 group M subtype B, UniProt P04578); test: Inhibition of 6-HB formation, sandwich ELISA; format: biochemical, HIV-1; settings: N36 and C34 1 μM each, triplicate
T2 construct: purchased KareBay Biochem, Inc; host or cells: solid-phase chemical synthesis
Method: The inhibitory activity of peptides on 6-HB formation was measured by the sandwich ELISA method, as previously described. Briefly, a 96-well polystyrene plate (Costar, Corning Inc., Corning, NY) was coated with rabbit anti-gp41 (NY-364) (2 μg/mL in 0.1 M Tris, pH 8.8). […] The mixture was added to the NY-364-coated plate, followed by incubation at room temperature for 60 min and washed three times with a washing buffer (PBS containing 0.1% Tween 20). The monoclonal antibody NC-1(1 μg/mL) was added to the plate and incubated at room temperature for 60 min, followed by washing three times. Rabbit anti-mouse IgG-HRP (Sigma) (1:3000 diluted) was added to each well and incubated at 37 °C for 1 h. The substrate 3, 3’, 5, 5’-tetramethylbenzidine (TMB; Sigma) was then added sequentially. Absorbance at 450 nm was measured using an ELISA reader (Ultra 384; Tecan, Research Triangle Park, NC). The percent inhibition by the peptides and the IC50 were calculated, as previously described.

human IgG = test: ELISA binding to human IgG; settings: for binding to human IgG: ELISA, dose-dependent, triplicate
Method: (§1) Next, different concentrations of human or rhesus monkey IgG were added to the peptide-coated plate and incubated at 37 °C for 1 h. Rabbit anti-human IgG-HRP (1:3000 diluted) was added to each well and incubated at 37 °C for another 1 h. Afterwards, the bound IgG-HRP was detected by addition of the HRP substrate TMB. The reaction was terminated by addition of 1 M H2SO4 50 μL. Absorbance at 450 nm was measured using an ELISA reader (Ultra 384; Tecan, Research Triangle Park, NC).
(§2) The data was fitted to the “one site – specific binding” using GraphPad Prism. The standard error (SE) is given for a sample size of three replicates per data point.

rhesus monkey IgG = test: ELISA binding to rhesus monkey IgG; settings: ELISA on peptide-coated plate; one site specific binding fit; ± SE, three replicates per point; read-out: Estimated Kd of binding to rhesus monkey IgG
Method: as §1, §2

Pseudoviruses = test: Inhibition of pseudotyped HIV-1 infection, panel average; format: cell-based; settings: average IC50 of 12 pseudotyped strains
Source text: HIV-1 pseudoviruses were generated, as described previously.

HIV-1 JR-CSF [3] = test: Therapeutic efficacy in humanized mice with established HIV-1 infection; format: in vivo, humanized NRG mice; settings: n = 4
Method: Humanized mice were inoculated with HIV-1 JR-CSF (10 ng p24/mouse) through retro-orbital injection and randomly assigned to 2 groups (4 mice in each group).
HIV-1 genomic RNA was purified from plasma by using the QIAamp Viral RNA Mini Kit. The RNA was reverse-transcribed and quantitatively detected by real-time PCR with the TaqMan Fast Virus 1-Step PCR kit (Thermo Fisher Scientific). We used the forward primer 5’-[…]-3’ and the reverse primer 5’-[…]-3’ to detect the HIV gag gene. […] The limit of detection of each real-time PCR was 4 copies per reaction. Accordingly, owing to the relatively small volume of plasma in mice (about 50–100 μL total blood), the limit of detection was 400 copies/mL plasma. The copy numbers below the detectable limit were set as 1. Triplicate reactions were performed for each sample.

HIV-1 IIIB [4] = test: Inhibitors alone or in combination against HIV-1 IIIB; format: cell-based; settings: mixture N6 / IBP-CP24, HIV-1 IIIB
Method: (§3) The samples were serially diluted and tested for their inhibitory activity on HIV-1 infection as described above. The data were analyzed for synergistic effect by calculating the combination index (CI) with the CalcuSyn software. CI values of <0.95 and >1.05 indicate synergy and antagonism, respectively. CI <0.1, 0.1–0.3, 0.3–0.7, 0.7–0.85, and 0.85–0.90 indicate very strong synergism, strong synergism, synergism, moderate synergism, and slight synergism, respectively. Fold of dose reduction was calculated with the ratio of concentrations of inhibitor testing alone and in combination.

HIV-1 JR-CSF [5] = test: Inhibitors alone or in combination against HIV-1 JR-CSF; format: cell-based
Method: as §3

HIV-1 IIIB [6] = test: Ex vivo anti-HIV-1 activity of sera from treated mice; format: in vivo; settings: BALB/c mice, i.p., N6 3.2 mg/kg and/or IBP-CP24 1.8 mg/kg
Method: The ex vivo anti-HIV-1 activity of a peptide or a bNAb or their combination in serum samples from mice treated with the peptide or bNAb was detected as described previously. […] Sera were collected from these mice at 2 and 8 h post-injection and tested for their inhibitory activity against HIV-1IIIB infection as described above. The dilution fold of the serum causing 50% inhibition (DF-IC50) was calculated.

[7] = test system: cell-cell fusion between H9/HIV-1IIIB and MT-2 cells; settings: IC50 comparison with CP24
Method: The inhibitory activity of peptides against cell-cell fusion between H9/HIV-1IIIB and MT-2 cells was detected, as described previously [3, 81]. Briefly, H9/HIV-1IIIB cells were labeled with a fluorescent reagent, Calcein AM (Molecular Probes, Inc., Eugene, Oregon), and then incubated with MT-2 cells (ratio = 1:10) in a 96-well plate at 37 °C for 2 h in the presence of a test peptide at graded concentrations or PBS as a control. The fused and unfused Calcein-labeled HIV-1-infected cells were counted under an inverted fluorescence microscope (Zeiss, Germany). Three fields of each well were counted and the percentage of inhibition of cell fusion by peptides was calculated as described previously [81]. The IC50 values of fusion were calculated using the CalcusSn software [36] and the inhibition curves of best fit were generated with GraphPad Prism.

T1 sequence (P04578 546-581): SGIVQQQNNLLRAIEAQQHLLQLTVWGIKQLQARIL
T2 sequence (P04578 546-581): as above

| Compound | fold more potent than CP24 against HIV-1 IIIB [1] | pIC50 [1] | Tm of the 6-HB formed with N36 (gp41 NHR peptide N36) | inhibition of 6-HB formation between N36 and C34 [2] | binding to human IgG (human IgG) | pKd (human IgG; read-out: Estimated Kd of binding to human IgG, ELISA on peptide-coated plate, one site specific binding fit, ± SE, three replicates per point) | pKd (rhesus monkey IgG) | fold more potent than CP24, pseudotyped strains (Pseudoviruses) | fold more potent than T20, pseudotyped strains (Pseudoviruses) | mean Δlog10 plasma HIV-1 RNA (HIV-1 JR-CSF [3]; 20 mg/kg i.p. once daily for 14 days, coinjected with human IgG 40 mg/kg twice weekly) | average decrease of plasma HIV-1 RNA (HIV-1 JR-CSF [3]; day 35 post-treatment, after twice daily 20 mg/kg for 21 days plus human IgG) | Dose reduction (HIV-1 IIIB [4]) | Dose reduction (HIV-1 JR-CSF [5]; mixture 10E8 / IBP-CP24, HIV-1 JR-CSF) | Dose reduction (HIV-1 JR-CSF [5]; mixture C34 / IBP-CP24, HIV-1 JR-CSF) | Dose reduction (HIV-1 JR-CSF [5]; mixture VRC07 / IBP-CP24, HIV-1 JR-CSF) | DF-IC50 (dilution fold of serum causing 50% inhibition of HIV-1 IIIB infection) (HIV-1 IIIB [6]; sera 2 h post-injection) | DF-IC50 (dilution fold of serum causing 50% inhibition of HIV-1 IIIB infection) (HIV-1 IIIB [6]; sera 8 h post-injection) | fold of CP24 in cell-cell fusion inhibition [7] |
| --- | --- | --- | --- | --- | --- | --- | --- | --- | --- | --- | --- | --- | --- | --- | --- | --- | --- | --- |
| CC[C@H](C)[C@H](NC(=O)[C@H](CC(C)C)NC(=O)[C@H](CCC(=O)O)NC(=O)[C@H](CCC(=O)O)NC(=O)[C@@H](NC(=O)[C@H](CCCCN)NC(=O)[C@H](CCCCN)NC(=O)[C@@H](NC(=O)[C@H](Cc1ccc(O)cc1)NC(=O)[C@H](CCC(=O)O)NC(=O)[C@H](CCC(=O)O)NC(=O)[C@@H](NC(=O)[C@H](CCCCN)NC(=O)[C@H](CCCCN)NC(=O)[C@H](CC(=O)O)NC(=O)[C@H](Cc1c[nH]c2ccccc12)NC(=O)[C@H](CCC(=O)O)NC(=O)[C@H](CCC(=O)O)NC(=O)[C@H](Cc1c[nH]c2ccccc12)NC(=O)[C@@H](NC(=O)[C@H](CCSC)NC(=O)[C@@H](NC(=O)[C@@H]1CSSC[C@H](NC(=O)[C@@H](N)CC(=O)O)C(=O)N[C@@H](C)C(=O)N[C@@H](Cc2c[nH]c3ccccc23)C(=O)N[C@@H](Cc2c[nH]cn2)C(=O)N[C@@H](CC(C)C)C(=O)NCC(=O)N[C@@H](CCC(=O)O)C(=O)N[C@@H](CC(C)C)C(=O)N[C@@H](C(C)C)C(=O)N[C@@H](Cc2c[nH]c3ccccc23)C(=O)N1)[C@@H](C)O)[C@@H](C)O)[C@@H](C)CC)[C@@H](C)O)[C@@H](C)CC)C(=O)N[C@@H](CCCCN)C(=O)N[C@@H](CCCCN)C(=O)N[C@@H](CO)C(=O)O [IBP-CP24] (H-DCAWHLGELVWCTMTWEEWDKKIEEYTKKIEELIKKS-OH; disulfide 2-12; N-terminus and C-terminus assumed) | about 2.3 fold | 8.23 | 85.25 °C | much stronger inhibition on 6-HB formation than CP24 itself | higher binding affinity with human IgG than IBP alone | 6.75 | 6.25 | ~4.9 fold | about 24.2 fold | 0.13 log10 | 1.42 log10 | 3.6 fold | 9.0 fold | 0.4 fold | 4.4 fold | 35 | 16 | about 1.2 fold |
| MTWEEWDKKIEEYTKKIEELIKKS [CP24, reference compound] |  | 7.71 | 78.69 °C |  | could not bind with human IgG |  |  |  |  |  |  |  |  |  |  |  |  |  |
